Tests used:
[1] = system: carrageenan-induced pain models; experiment: Determination of paw swelling volumes, carrageenan-induced pain models; type: in vivo, SD male rats; settings: for Relative value of paw volumes: single dose, mean ± SD
Method: The experimental results were expressed as “mean±standard deviation”. The data of each group were statistically analyzed using the SPSS16.0 software package to compare whether there were statistical differences among the groups. P<0.05 indicated a statistical difference. A total of 72 SD male rats aged 6 to 8 weeks, with body weights of 188-208 g, were divided into 9 groups, with 8 rats in each group. […] Then 20 mL of normal saline was added to the glass bottle. The glass bottle was placed on a magnetic stirrer, and magnetic stirring was performed for 6 hours to obtain a 3% carrageenan solution. The carrageenan solution was stored at 4° C. • 1 Fasting: no • 2 Administration route: IP (intraperitoneal injection) • 3 Administration volume: 5 mL/kg • 4 Administration frequency: single-dose administration • 5 Time of administration: administered immediately after induction Sivelestat sodium: 26 mg of sivelestat sodium (corresponding to a dosage of 10 mg/kg) was weighed. Part of normal saline was added, and sonication and vortexing were performed. The pH was adjusted with […] until a homogeneous solution was obtained, and finally, the volume was made up to 13.0 mL. Experimental samples with other dosages (30 mg/kg, 100 mg/kg) could be prepared according to the specific dosages with reference to a similar method. Parecoxib: 24 mg of parecoxib (corresponding to a dosage of 10 mg/kg) was weighed. Part of normal saline was added, and sonication and vortexing were performed. The pH was adjusted with 10 mol NaOH until a homogeneous solution was obtained, and finally, the volume was made up to 12.0 mL. Experimental samples with other dosages (20 mg/kg) could be prepared according to the specific dosages with reference to a similar method. Samples of other COX-2 inhibitors were prepared with reference to the similar method described above. [table] To measure the paw swelling volumes (paw volumes) of experimental rats, the animals were gently held with one hand, and their hind paws were placed into the instrument used to measure the paw volumes with the other hand. The size of the paw volume was recorded. The measurement was repeated twice, and the mean value was taken as the paw volume of the animals.

[2] = system: carrageenan-induced pain models; experiment: Determination of thermal radiation (thermal pain threshold), carrageenan-induced pain models; type: in vivo, SD male rats; settings: for Relative value of thermal radiation: single dose, mean ± SD
Method: The experimental results were expressed as “mean±standard deviation”. The data of each group were statistically analyzed using the SPSS16.0 software package to compare whether there were statistical differences among the groups. P<0.05 indicated a statistical difference. A total of 72 SD male rats aged 6 to 8 weeks, with body weights of 188-208 g, were divided into 9 groups, with 8 rats in each group. […] Then 20 mL of normal saline was added to the glass bottle. The glass bottle was placed on a magnetic stirrer, and magnetic stirring was performed for 6 hours to obtain a 3% carrageenan solution. The carrageenan solution was stored at 4° C. • 1 Fasting: no • 2 Administration route: IP (intraperitoneal injection) • 3 Administration volume: 5 mL/kg • 4 Administration frequency: single-dose administration • 5 Time of administration: administered immediately after induction Sivelestat sodium: 26 mg of sivelestat sodium (corresponding to a dosage of 10 mg/kg) was weighed. Part of normal saline was added, and sonication and vortexing were performed. The pH was adjusted with […] until a homogeneous solution was obtained, and finally, the volume was made up to 13.0 mL. Experimental samples with other dosages (30 mg/kg, 100 mg/kg) could be prepared according to the specific dosages with reference to a similar method. Parecoxib: 24 mg of parecoxib (corresponding to a dosage of 10 mg/kg) was weighed. Part of normal saline was added, and sonication and vortexing were performed. The pH was adjusted with 10 mol NaOH until a homogeneous solution was obtained, and finally, the volume was made up to 12.0 mL. Experimental samples with other dosages (20 mg/kg) could be prepared according to the specific dosages with reference to a similar method. Samples of other COX-2 inhibitors were prepared with reference to the similar method described above. [table] The animals were placed in a transparent plastic box, and could be allowed to acclimatize for 10 minutes before the test. The middle of the plantar surface of the hind limb on the side where carrageenan was injected in the rats was irradiated with a radiant heat light source to determine their thermal pain threshold. The detection was repeated twice. Then the mean value was taken as the final detection index.

[3] = system: carrageenan-induced pain models; experiment: Determination of mechanical pain thresholds (electronic Von Frey Hairs), carrageenan-induced pain models; type: in vivo, SD male rats; settings: for Relative value of Von Frey Hairs: single dose, mean ± SD
Method: The experimental results were expressed as “mean±standard deviation”. The data of each group were statistically analyzed using the SPSS16.0 software package to compare whether there were statistical differences among the groups. P<0.05 indicated a statistical difference. A total of 72 SD male rats aged 6 to 8 weeks, with body weights of 188-208 g, were divided into 9 groups, with 8 rats in each group. […] Then 20 mL of normal saline was added to the glass bottle. The glass bottle was placed on a magnetic stirrer, and magnetic stirring was performed for 6 hours to obtain a 3% carrageenan solution. The carrageenan solution was stored at 4° C. • 1 Fasting: no • 2 Administration route: IP (intraperitoneal injection) • 3 Administration volume: 5 mL/kg • 4 Administration frequency: single-dose administration • 5 Time of administration: administered immediately after induction Sivelestat sodium: 26 mg of sivelestat sodium (corresponding to a dosage of 10 mg/kg) was weighed. Part of normal saline was added, and sonication and vortexing were performed. The pH was adjusted with […] until a homogeneous solution was obtained, and finally, the volume was made up to 13.0 mL. Experimental samples with other dosages (30 mg/kg, 100 mg/kg) could be prepared according to the specific dosages with reference to a similar method. Parecoxib: 24 mg of parecoxib (corresponding to a dosage of 10 mg/kg) was weighed. Part of normal saline was added, and sonication and vortexing were performed. The pH was adjusted with 10 mol NaOH until a homogeneous solution was obtained, and finally, the volume was made up to 12.0 mL. Experimental samples with other dosages (20 mg/kg) could be prepared according to the specific dosages with reference to a similar method. Samples of other COX-2 inhibitors were prepared with reference to the similar method described above. [table] The animals were placed in a specially designed multi-unit metal mesh cage for pain detection, and allowed to acclimate to the environment for 10 minutes. After the grooming and exploratory activities of the animals ceased and the animals adapted to the detection environment, the sole of the hind limb on the side where carrageenan was injected in the rats was stimulated with electronic Von Frey Hairs. […] The value of the Von Frey Hairs at this time, which was the threshold of the mechanical pain response, was recorded with “gram” as the unit of detection. The detection was repeated twice. Then the mean value was taken as the final detection index. The determination of mechanical pain thresholds was performed at a total of 5 time points, including before administration and 1 h, 3 h, 4 h and 6 h after administration.

[4] = system: rat models of post-operative pain; experiment: Mechanical hyperalgesia test in rat models of post-operative pain; type: in vivo, Male SD rats; settings: used alone, i.p., single dose
Method: Male SD rats were acclimated to the test environment for 3 days before modeling. On the day of modeling, the animals were anesthetized with Zoletil 50+xylazine hydrochloride (20 mg/kg+8 mg/kg, intraperitoneal injection). A longitudinal incision of approximately 1 cm in length was made towards the toes at a position 0.7-0.8 cm from the heel of the left hind paw of the animals. After the skin was incised, the flexor digitorum brevis muscle was lifted, and a longitudinal blunt injury was inflicted. On the first day after the operation, the model animals were randomly divided into 7 groups according to the baseline values of mechanical hyperalgesia.
Two-way analysis of variance with the Bonferroni's multiple comparison test was performed.

[5] = 10 mg/kg intraperitoneal, 1 hour after administration
[6] = 10 mg/kg intraperitoneal, 3 hours after administration
[7] = 10 mg/kg intraperitoneal, 4 hours after administration
[8] = 10 mg/kg intraperitoneal, 6 hours after administration
[9] = 20 mg/kg intraperitoneal, 1 hour after administration
[10] = 20 mg/kg intraperitoneal, 3 hours after administration
[11] = 20 mg/kg intraperitoneal, 4 hours after administration
[12] = 20 mg/kg intraperitoneal, 6 hours after administration
[13] = 30 mg/kg intraperitoneal, 1 hour after administration
[14] = 30 mg/kg intraperitoneal, 3 hours after administration
[15] = 30 mg/kg intraperitoneal, 4 hours after administration
[16] = 30 mg/kg intraperitoneal, 6 hours after administration
[17] = 100 mg/kg intraperitoneal, 1 hour after administration
[18] = 100 mg/kg intraperitoneal, 3 hours after administration
[19] = 100 mg/kg intraperitoneal, 4 hours after administration
[20] = 100 mg/kg intraperitoneal, 6 hours after administration
[21] = used alone at 10, 30 and 100 mg/kg

## CCC(=O)NS(=O)(=O)c1ccc(-c2c(-c3ccccc3)noc2C)cc1 [parecoxib]
[1]; [5]
  Relative value of paw volumes: 4.34 ± 25.02%
[1]; [6]
  Relative value of paw volumes: 24.76 ± 11.32 %
[1]; [7]
  Relative value of paw volumes: 22.58 ± 18.82 %
[1]; [8]
  Relative value of paw volumes: 20.81 ± 12.66 %
[1]; [9]
  Relative value of paw volumes: 18.58 ± 45.76%
[1]; [10]
  Relative value of paw volumes: 31.45 ± 25.56 %
[1]; [11]
  Relative value of paw volumes: 19.47 ± 23.41%
[1]; [12]
  Relative value of paw volumes: 23.95 ± 15.74 %
[2]; [5]
  Relative value of thermal radiation: 34.6 ± 18.9 %
[2]; [6]
  Relative value of thermal radiation: 16.6 ± 16.7%
[2]; [7]
  Relative value of thermal radiation: 22.7 ± 13.8 %
[2]; [8]
  Relative value of thermal radiation: 14.6 ± 11.0 %
[2]; [9]
  Relative value of thermal radiation: 45.8 ± 25.1 %
[2]; [10]
  Relative value of thermal radiation: 58.5 ± 22.3 %
[2]; [11]
  Relative value of thermal radiation: 37.4 ± 26.7%
[2]; [12]
  Relative value of thermal radiation: 38.0 ± 11.0 %
[3]; [5]
  Relative value of Von Frey Hairs: 13.6 ± 5.9 %
[3]; [6]
  Relative value of Von Frey Hairs: 16.4 ± 4.2 %
[3]; [7]
  Relative value of Von Frey Hairs: 15.1 ± 4.5 %
[3]; [8]
  Relative value of Von Frey Hairs: 11.9 ± 5.8 %
[3]; [9]
  Relative value of Von Frey Hairs: 13.7 ± 7.5 %
[3]; [10]
  Relative value of Von Frey Hairs: 17.3 ± 7.9 %
[3]; [11]
  Relative value of Von Frey Hairs: 16.2 ± 4.2 %
[3]; [12]
  Relative value of Von Frey Hairs: 12.4 ± 3.9 %

## CC(C)(C)C(=O)Oc1ccc(S(=O)(=O)Nc2ccccc2C(=O)NCC(=O)O)cc1 [sivelestat sodium]
[4]
  effect on post-operative pain (mechanical hyperalgesia): significant effect
[1]; [5]
  Relative value of paw volumes: 4.86 ± 19.10%
[1]; [6]
  Relative value of paw volumes: 8.96 ± 13.90%
[1]; [7]
  Relative value of paw volumes: 1.67 ± 15.59%
[1]; [8]
  Relative value of paw volumes: 3.70 ± 14.04%
[1]; [13]
  Relative value of paw volumes: 20.49 ± 41.12%
[1]; [14]
  Relative value of paw volumes: 17.37 ± 17.14%
[1]; [15]
  Relative value of paw volumes: 14.09 ± 18.97%
[1]; [16]
  Relative value of paw volumes: 14.94 ± 18.68%
[1]; 100 mg/kg alone, 6 h after administration
  anti-inflammatory effect (paw volumes): significant anti-inflammatory effect
[1]; [17]
  Relative value of paw volumes: 3.99 ± 24.23%
[1]; [18]
  Relative value of paw volumes: 18.24 ± 11.26%
[1]; [19]
  Relative value of paw volumes: 13.64 ± 15.23%
[1]; [20]
  Relative value of paw volumes: 19.27 ± 11.40 %
[1]; [21]
  anti-inflammatory effect (paw volumes) compared with the model group: a certain anti-inflammatory effect
[2]; [5]
  Relative value of thermal radiation: 10.3 ± 28.7%
[2]; [6]
  Relative value of thermal radiation: 19.8 ± 14.0 %
[2]; [7]
  Relative value of thermal radiation: 3.7 ± 5.1%
[2]; [8]
  Relative value of thermal radiation: 4.2 ± 6.2%
[2]; [13]
  Relative value of thermal radiation: 20.9 ± 39.4%
[2]; [14]
  Relative value of thermal radiation: 18.0 ± 21.4%
[2]; [15]
  Relative value of thermal radiation: 4.0 ± 9.3%
[2]; [16]
  Relative value of thermal radiation: 9.2 ± 4.4%
[2]; [17]
  Relative value of thermal radiation: 24.0 ± 41.2%
[2]; [18]
  Relative value of thermal radiation: 22.3 ± 18.0 %
[2]; [19]
  Relative value of thermal radiation: 13.1 ± 11.0%
[2]; [20]
  Relative value of thermal radiation: 5.4 ± 8.1%
[2]; used alone at 10 mg/kg and 100 mg/kg, 3 hours after administration
  analgesic efficacy in the thermal pain threshold test: significant analgesic efficacy
[3]; [5]
  Relative value of Von Frey Hairs: 17.1 ± 5.5 %
[3]; [6]
  Relative value of Von Frey Hairs: 15.3 ± 5.9 %
[3]; [7]
  Relative value of Von Frey Hairs: 11.5 ± 6.1 %
[3]; [8]
  Relative value of Von Frey Hairs: 4.8 ± 4.4 %
[3]; [13]
  Relative value of Von Frey Hairs: 18.9 ± 5.9 %
[3]; [14]
  Relative value of Von Frey Hairs: 15.6 ± 7.5 %
[3]; [15]
  Relative value of Von Frey Hairs: 15.2 ± 4.2 %
[3]; [16]
  Relative value of Von Frey Hairs: 4.1 ± 5.0%
[3]; [17]
  Relative value of Von Frey Hairs: 20.4 ± 3.9 %
[3]; [18]
  Relative value of Von Frey Hairs: 18.1 ± 3.7 %
[3]; [19]
  Relative value of Von Frey Hairs: 15.5 ± 4.3 %
[3]; [20]
  Relative value of Von Frey Hairs: 7.9 ± 4.5 %
[3]; [21]
  analgesic efficacy in the mechanical pain threshold test: significant analgesic efficacy
